Results: patent publication US10213415B2, “Compounds as opioid receptor modulators” (JANSSEN PHARMACEUTICA NV, priority 2004, dated 2019)

How the values were obtained:
[1] = target: T1, delta opioid receptor (NG108-15 cell membranes) (Mus musculus, UniProt P32300); experiment: Delta Opioid Receptor Functional Assay: [35S]GTPγS Binding in NG108-15 Cell Membranes, Version 2; assay type: biochemical; settings: NG108-15 cell membranes, version 2; for EC50: [35S]GTPγS, read-out: DOR GTP-binding Assay_v2_ EC50; for DOR GTP-binding Assay v2 (% I): % inhibition of agonist-stimulated GTPγS binding
T1 construct: NG108-15 cell membranes were purchased from Applied Cell Sciences (Rockville, Md.); host or cells: NG108-15 cells (membranes purchased)
Procedure: NG108-15 cell membranes were purchased from Applied Cell Sciences (Rockville, Md.). 8 mg/ml of membrane protein suspended in 10 mM TRIS-HC pH 7.2, 2 mM EDTA, 10% sucrose.
Membranes were maintained at 4-8° C. A portion (1 ml) of membranes was added into 10 ml cold binding assay buffer. The assay buffer contained 50 mM Tris, pH 7.6, 5 mM MgCl2, 100 mM NaCl, 1 mM DTT and 1 mM EGTA. The membrane suspension was homogenized with a Polytron for 2 times and centrifuged at 3000 rpm for 10 min. The supernent was then centrifuged at 18,000 rpm for 20 min. The pellet was saved in a tube and 10 ml assay buffer was added into the tube. The pellet and buffer were mixed with a Polytron.
The pellet membranes (75 μg/ml) were preincubated with SPA (10 mg/ml) at 25° C. for 45 min in the assay buffer. The SPA (5 mg/ml) coupled with membranes (37.5 μg/ml) was then incubated with 0.1 nM [^35S] GTPγS in the same Tris buffer containing 100 μM GDP in total volume of 200 μl. Increasing concentrations of receptor agonists were used to stimulate [^35S] GTPγS binding. The basal binding was tested in the absent agonists and no specific binding was tested in the present 10 μM unlabeled GTPγS. The data were analyzed on a Top counter.
[formula] % Inhibition=(% stimulation by 1 μM SNC80−% stimulation by 1 μM SNC80 in presence of test compound)×100/(% Stimulation by 1 μM SNC80−100) % of Basal=(stimulate−non specific)*100/(basal−non specific). EC50 values were calculated using GraphPad Prism.

[2] = target: T2, mu opioid receptor (CHO-hMOR cell membranes) (Homo sapiens, UniProt P35372); experiment: Mu Opioid Receptor Functional Assay: [35S]GTPγS Binding in CHO-hMOR Cell Membranes, Versions 1 and 2; assay type: biochemical; settings: for MOR GTP binding assay_v2 (% I): version 2, % inhibition of agonist-stimulated GTPγS binding; for EC50: version 2, read-out: MOR GTP binding assay v2 EC50
T2 construct: purchased Receptor Biology, Inc. (Baltimore, Md.); host or cells: CHO cells (recombinant expression)
In short: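 CHO-hMOR membranes (10 μg/ml) on WGA SPA beads, preincubated 45 min at 25 °C, then incubated with 0.5 nM [35S]GTPγS in HEPES pH 7.6, 5 mM MgCl2, 100 mM NaCl, 1 mM DTT, 1 mM EDTA. Non-specific binding with 10 μM unlabeled GTPγS; agonist EC50 from concentration-response, antagonism as inhibition of 1 μM SNC80-stimulated binding.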

delta opioid receptor = target: T3, delta opioid receptor (Rattus norvegicus, UniProt P33533); experiment: Rat Brain Delta Opioid Receptor Binding Assay ([3H]DPDPE); settings: rat forebrain membranes, margin of error 10-20%, read-out: r Ki δ
T3 construct: from tissue; host or cells: forebrain of male Wistar rats
Procedure: Male, Wistar rats (150-250 g, VAF, Charles River, Kingston, N.Y.) are killed by cervical dislocation, and their brains removed and placed immediately in ice cold Tris HCl buffer (50 mM, pH 7.4). The forebrains are separated from the remainder of the brain by a coronal transection, beginning dorsally at the colliculi and passing ventrally through the midbrain-pontine junction. After dissection, the forebrains are homogenized in Tris buffer in a Teflon® glass homogenizer. The homogenate is diluted to a concentration of 1 g of forebrain tissue per 80 mL Tris and centrifuged at 39,000×g for 10 min. The pellet is resuspended in the same volume of Tris buffer containing 5 mM MgCl2 with several brief pulses from a Polytron homogenizer. This particulate preparation is used for the delta opioid binding assays. Following incubation with the delta selective peptide ligand ˜4 nM [^3H]DPDPE at 25° C. for 2.5 h in a 96-well plate with total volume of 1 mL, the plate contents are filtered through Wallac filtermat B sheets on a Tomtec 96-well harvester. The filters are rinsed three times with 2 mL of 10 mM HEPES (pH 7.4), and dried in a microwave oven 2 min twice. To each sample area 2×50 μL of Betaplate Scint scintillation fluid (LKB) is added and analyzed on a LKB (Wallac) 1205 BetaPlate liquid scintillation counter.
The data are used to calculate either the % inhibition compared to control binding (when only a single concentration of test compound is evaluated) or a Ki value (when a range of concentrations is tested). % inhibition is calculated as: [(total dpm−test compound dpm)/(total dpm−nonspecific dpm)]*100. Kd and Ki values were calculated using GraphPad PRISM data analysis program.

mu opioid receptor = target: T4, mu opioid receptor (Rattus norvegicus, UniProt P33535); experiment: Rat Brain Mu Opioid Receptor Binding Assay (and Version 2a, [3H]DAMGO); settings: rat forebrain membranes, margin of error 10-20%, read-out: r Ki μ
T4 construct: from tissue; host or cells: forebrain of male Wistar rats
In short: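 Rat forebrain membranes from male Wistar rats in 50 mM Tris-HCl pH 7.4 with 5 mM MgCl2 incubated with 0.8 nM [3H]DAMGO for 2.5 h at 25° C., then filtered and counted. Data given as % inhibition of specific binding at single concentrations or as Ki from concentration series.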

human mu opioid receptor = target: T5, human mu opioid receptor (Homo sapiens, UniProt P35372); experiment: Human Mu Opioid Receptor Binding Assay (CHO membranes, 3H-Damgo); settings: read-out: hKi μ
T5 construct: purchased Perkin Elmer RBHOMM400UA; host or cells: Chinese Hamster Ovary cells (recombinant expression)
In short: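 Membranes from CHO cells expressing human mu opioid receptor, 300 μg/mL, in 50 mM Tris pH 7.5, 5 mM MgCl2. Incubated with compound and ³H-Damgo (3.6 nM before mixing) for 2 h at room temperature, filtered, counted by scintillation. Nonspecific binding with 1 μM unlabelled Damgo.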

[3] = target: T6, human delta subtype 2 opioid receptor (Homo sapiens, UniProt P41143); experiment: Human Delta Opioid Receptor Binding Assay (CHO membranes, 3H-Naltrindole); settings: read-out: hKi δ
T6 construct: purchased Perkin Elmer RBHODM400UA; host or cells: Chinese Hamster Ovary cells (recombinant expression)
In short: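 Filtration binding on CHO-cell membranes expressing the human receptor, in 50 mM Tris pH 7.5 with 5 mM MgCl2, 30 min at room temperature; 3H-naltrindole diluted to 6 nM before mixing 1:1 with compound. Nonspecific binding defined with 1 μM unlabelled naltrindole; inhibition relative to no-inhibitor wells.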

T5 sequence (P35372 whole entry): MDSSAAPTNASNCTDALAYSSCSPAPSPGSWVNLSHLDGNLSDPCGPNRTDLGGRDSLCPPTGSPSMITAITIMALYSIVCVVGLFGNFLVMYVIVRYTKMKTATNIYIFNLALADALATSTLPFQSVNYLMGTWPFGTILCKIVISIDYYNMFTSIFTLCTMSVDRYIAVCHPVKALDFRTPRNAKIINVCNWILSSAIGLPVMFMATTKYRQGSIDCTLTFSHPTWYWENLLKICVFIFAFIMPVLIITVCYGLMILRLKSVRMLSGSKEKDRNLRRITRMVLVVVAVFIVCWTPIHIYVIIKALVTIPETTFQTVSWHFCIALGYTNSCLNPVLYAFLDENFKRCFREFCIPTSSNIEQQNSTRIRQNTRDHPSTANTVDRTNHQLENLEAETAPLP
T2 sequence (P35372 whole entry): as above
T3 sequence (P33533 whole entry): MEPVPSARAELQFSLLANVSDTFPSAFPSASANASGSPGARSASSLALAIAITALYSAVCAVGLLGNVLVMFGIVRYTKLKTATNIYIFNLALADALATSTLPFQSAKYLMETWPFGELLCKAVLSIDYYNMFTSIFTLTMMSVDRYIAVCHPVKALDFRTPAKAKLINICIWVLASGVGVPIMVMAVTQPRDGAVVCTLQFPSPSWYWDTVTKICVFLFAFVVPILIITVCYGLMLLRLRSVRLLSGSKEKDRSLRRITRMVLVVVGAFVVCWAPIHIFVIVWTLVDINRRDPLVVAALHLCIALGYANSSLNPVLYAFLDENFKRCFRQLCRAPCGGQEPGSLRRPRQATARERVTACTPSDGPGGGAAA
T4 sequence (P33535 whole entry): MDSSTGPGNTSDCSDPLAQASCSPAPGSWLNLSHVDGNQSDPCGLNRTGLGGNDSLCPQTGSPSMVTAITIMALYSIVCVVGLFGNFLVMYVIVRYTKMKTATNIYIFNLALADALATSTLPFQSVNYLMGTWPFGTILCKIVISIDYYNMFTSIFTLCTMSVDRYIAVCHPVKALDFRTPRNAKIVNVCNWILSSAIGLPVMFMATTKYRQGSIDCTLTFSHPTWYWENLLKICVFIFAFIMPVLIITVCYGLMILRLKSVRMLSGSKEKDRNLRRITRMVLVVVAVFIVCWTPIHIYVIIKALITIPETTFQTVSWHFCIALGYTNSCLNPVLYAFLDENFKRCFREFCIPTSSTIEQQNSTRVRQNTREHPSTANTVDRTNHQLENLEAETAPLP
T1 sequence (P32300 whole entry): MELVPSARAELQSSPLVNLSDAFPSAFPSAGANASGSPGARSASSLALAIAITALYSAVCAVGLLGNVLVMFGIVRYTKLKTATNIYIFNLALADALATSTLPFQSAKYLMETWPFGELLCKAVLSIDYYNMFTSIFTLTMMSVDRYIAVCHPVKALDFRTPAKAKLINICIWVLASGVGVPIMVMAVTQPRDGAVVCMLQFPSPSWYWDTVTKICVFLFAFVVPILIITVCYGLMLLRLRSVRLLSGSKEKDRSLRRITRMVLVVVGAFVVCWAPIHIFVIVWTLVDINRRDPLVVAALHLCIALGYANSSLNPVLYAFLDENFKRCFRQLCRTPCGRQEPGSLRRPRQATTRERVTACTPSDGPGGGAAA
T6 sequence (P41143 whole entry): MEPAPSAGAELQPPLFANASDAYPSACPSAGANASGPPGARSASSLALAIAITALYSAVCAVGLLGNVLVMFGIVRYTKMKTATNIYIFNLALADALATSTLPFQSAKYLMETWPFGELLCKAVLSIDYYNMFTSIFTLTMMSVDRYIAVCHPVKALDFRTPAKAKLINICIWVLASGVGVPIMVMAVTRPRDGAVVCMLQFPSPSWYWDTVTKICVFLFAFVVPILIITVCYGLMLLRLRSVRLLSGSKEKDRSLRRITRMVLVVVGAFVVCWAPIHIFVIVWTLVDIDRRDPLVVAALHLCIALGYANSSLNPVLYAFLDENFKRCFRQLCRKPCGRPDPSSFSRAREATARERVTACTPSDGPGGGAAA

Cc1cc(C(N)=O)cc(C)c1C[C@H](N)C(=O)N(Cc1ccc(C(=O)O)nc1)[C@@H](C)c1nc(-c2ccccc2)c[nH]1 [Cpd 254]
EC50 [1]: 6.27 nM | DOR GTP-binding Assay v2 (% I) [1]: 62.00% | MOR GTP binding assay_v2 (% I) [2]: 42.00% | EC50 [2]: 316 nM

CCOc1cccc(CN(C(=O)[C@@H](N)Cc2c(C)cc(O)cc2C)[C@@H](C)c2nc(-c3ccccc3)c[nH]2)c1 [Cpd 251]
Ki (delta opioid receptor): 0.26 nM | Ki (mu opioid receptor): 0.08 nM | EC50 [1]: 18 nM | DOR GTP-binding Assay v2 (% I) [1]: 53.94%

Cc1cc(C(N)=O)cc(C)c1C[C@H](N)C(=O)N(Cc1ccc(C(=O)O)cn1)[C@@H](C)c1nc(-c2ccccc2)c[nH]1 [Cpd 253]
EC50 [1]: 1.35 nM | DOR GTP-binding Assay v2 (% I) [1]: 52.00% | MOR GTP binding assay_v2 (% I) [2]: 28.00% | EC50 [2]: 251 nM

Cc1cc(C(N)=O)cc(C)c1C[C@H](N)C(=O)N(Cc1ccccc1C(=O)O)[C@@H](C)c1nc(-c2ccccc2)c[nH]1 [Cpd 226]
Ki (delta opioid receptor): 48 nM | Ki (human mu opioid receptor): 7.91 nM | EC50 [1]: > 10000 nM | DOR GTP-binding Assay v2 (% I) [1]: 19.71%

Cc1cc(O)cc(C)c1C[C@H](N)C(=O)N(Cc1ccc(OC(F)(F)F)cc1)[C@@H](C)c1nc(-c2ccccc2)c[nH]1 [Cpd 248]
Ki (delta opioid receptor): 0.44 nM | Ki (mu opioid receptor): 0.11 nM | EC50 [1]: 15 nM | DOR GTP-binding Assay v2 (% I) [1]: 31.72%

COc1ccc(CN(C(=O)[C@@H](N)Cc2c(C)cc(C(N)=O)cc2C)[C@@H](C)c2nc(-c3ccccc3Br)c[nH]2)cc1C(=O)O [Cpd 290]
Ki (delta opioid receptor): 0.69 nM | Ki (mu opioid receptor): 0.43 nM | EC50 [1]: > 10000 nM | DOR GTP-binding Assay v2 (% I) [1]: 52.41%

COC(=O)c1ccc(CN(C(=O)[C@@H](N)Cc2c(C)cc(C(N)=O)cc2C)[C@@H](C)c2nc(-c3ccccc3)c[nH]2)nc1 [Cpd 252]
EC50 [1]: 32.1 nM | DOR GTP-binding Assay v2 (% I) [1]: 66.00% | MOR GTP binding assay_v2 (% I) [2]: 24.00% | EC50 [2]: 4.15 nM

COC(=O)c1ccc(CN(C(=O)[C@@H](N)Cc2c(C)cc(C(N)=O)cc2C)[C@@H](C)c2nc(-c3ccccc3)c[nH]2)cn1 [Cpd 255]
EC50 [1]: 13.1 nM | DOR GTP-binding Assay v2 (% I) [1]: 54.00% | MOR GTP binding assay_v2 (% I) [2]: 33.00% | EC50 [2]: 3.48 nM

COc1cc(CN(C(=O)[C@@H](N)Cc2c(C)cc(C(N)=O)cc2C)[C@@H](C)c2nc(-c3ccccc3)c[nH]2)c(C(=O)O)cc1OC [Cpd 230]
Ki (delta opioid receptor): 10 nM | Ki (mu opioid receptor): 5 nM | EC50 [1]: 48.9 nM

COc1ccc(CN(C(=O)[C@@H](N)Cc2c(C)cc(C(N)=O)cc2C)[C@@H](C)c2nc(-c3cccc(C(=O)O)c3)c[nH]2)cc1OC [Cpd 20]
Ki (human mu opioid receptor): 63 nM | EC50 [1]: > 10000 nM | DOR GTP-binding Assay v2 (% I) [1]: 78.74%

COC(=O)c1ccc(CN(C(=O)[C@@H](N)Cc2c(C)cc(O)cc2C)[C@@H](C)c2nc(-c3ccccc3)c[nH]2)o1 [Cpd 286]
Ki (delta opioid receptor): 0.11 nM | Ki (mu opioid receptor): 0.05 nM | EC50 [1]: 2.6 nM | DOR GTP-binding Assay v2 (% I) [1]: 34.65%

COC(=O)c1cccc(CN(C(=O)[C@@H](N)Cc2c(C)cc(C(N)=O)cc2C)[C@@H](C)c2nc(-c3ccccc3)c[nH]2)n1 [Cpd 313]
EC50 [1]: 5.03 nM | DOR GTP-binding Assay v2 (% I) [1]: 49% | MOR GTP binding assay_v2 (% I) [2]: 29.00% | EC50 [2]: 50.6 nM

COc1ccc(CN(C(=O)[C@@H](N)Cc2c(C)cc(O)cc2C)[C@@H](C)c2nc(-c3ccccc3)c[nH]2)c2ccccc12 [Cpd 247]
Ki (delta opioid receptor): 0.4 nM | Ki (mu opioid receptor): 0.61 nM | EC50 [1]: 44 nM | DOR GTP-binding Assay v2 (% I) [1]: 41.89%

COC(=O)c1ccc(CN(C(=O)[C@@H](N)Cc2c(C)cc(C(N)=O)cc2C)[C@@H](C)c2nc(-c3ccccc3)c[nH]2)cc1 [Cpd 51]
Ki (human mu opioid receptor): 2.7 nM | Ki [3]: 113 nM | EC50 [1]: 27 nM | DOR GTP-binding Assay v2 (% I) [1]: 66.04%

Cc1cc(O)cc(C)c1C[C@H](N)C(=O)N(Cc1ccc(OC(C)C)cc1)[C@@H](C)c1nc(-c2ccccc2)c[nH]1 [Cpd 250]
Ki (delta opioid receptor): 0.21 nM | Ki (mu opioid receptor): 0.06 nM | EC50 [1]: 10 nM | DOR GTP-binding Assay v2 (% I) [1]: 34.93%

Cc1cc(O)cc(C)c1C[C@H](N)C(=O)N(Cc1ccc(C(F)(F)F)cc1)[C@@H](C)c1nc(-c2ccccc2)c[nH]1 [Cpd 249]
Ki (delta opioid receptor): 0.18 nM | Ki (mu opioid receptor): 0.12 nM | EC50 [1]: 8 nM | DOR GTP-binding Assay v2 (% I) [1]: 20.14%

COC(=O)c1cc(CN(C(=O)[C@@H](N)Cc2c(C)cc(C(N)=O)cc2C)[C@@H](C)c2nc(-c3ccccc3)c[nH]2)ccn1 [Cpd 311]
EC50 [1]: 1.02 nM | DOR GTP-binding Assay v2 (% I) [1]: 41.00%

COc1ccc(CN(C(=O)[C@@H](N)Cc2c(C)cc(C(N)=O)cc2C)[C@@H](C)c2nc(-c3ccc(Cl)cc3)c(C)[nH]2)cc1C(=O)O [Cpd 239]
Ki (delta opioid receptor): 0.1 nM | Ki (mu opioid receptor): 0.44 nM | EC50 [1]: > 10000 nM

COc1cc(CN(C(=O)[C@@H](N)Cc2c(C)cc(C(N)=O)cc2C)[C@@H](C)c2nc(-c3ccccc3)c[nH]2)ccc1C(=O)O [Cpd 14]
Ki (delta opioid receptor): 0.36 nM | Ki (human mu opioid receptor): 4.7 nM | EC50 [1]: 0.6 nM | DOR GTP-binding Assay v2 (% I) [1]: 59.70%
